Reference: publication PMC11172314, “Towards Enhanced Tunability of Aqueous Biphasic Systems: Furthering the Grasp of Fluorinated Ionic Liquids in the Purification of Proteins” (International Journal of Molecular Sciences, 2024)

Key:
Parameters in all cases: species or system chicken
lysozyme (Lys) [1] = molecular target: T1, lysozyme (Lys) (Gallus gallus, UniProt P00698); test: DSC thermal stability (Tm, ΔH) of lysozyme in water, component solutions and ABS phases; conditions: 1.0 mg/mL Lys
T1 construct: Lyophilized lysozyme from chicken egg white, ≥90% purity; purchased Millipore (Darmstadt, Germany); host or cells: chicken egg white (natural source)
T1 sequence (P00698 19-147): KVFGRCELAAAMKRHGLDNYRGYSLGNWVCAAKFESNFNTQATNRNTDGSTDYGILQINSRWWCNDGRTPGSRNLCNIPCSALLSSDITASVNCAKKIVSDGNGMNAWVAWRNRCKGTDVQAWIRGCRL
Description: Differential scanning calorimetry (DSC) measurements (Section 3) were used to determine the melting temperature ( Tm ) and enthalpy ( Δ H) of lysozyme, at which both the folded and unfolded states coexist at equilibrium. DSC outputs, thermal transitions at the nanoscale level, allow to analyze alterations on proteins structure and stability, providing sharp perceptions of the factors affecting stability, as well as of the folding and unfolding processes. […] (DSC curve depicted in Figure S16 of Supplementary Materials).
FIL (BP#8, BP#10, BP#11, and BP#12). […] For the system based on [C4C1Im][CF3SO3]
The thermal stability of lysozyme was analyzed in water, ABS phase-forming compounds aqueous solutions, and partition ABS phases. […] Partition lysozyme on each phase from the prepared biphasic points as well as recovered protein from the FIL-rich phase were also addressed for a selection of studied systems listed in Table 1. We acquired thermograms using a TA^TM Nano DSC from TA Instruments. All scans were conducted in a 300 μ L capillary cell through a temperature ramp from 20 to 90 °C at a heating rate of 1 °C/min and 3 atm pressure. All samples were degassed for 7 min at 20 °C, with the exception of FIL-containing samples owing to their surfactant properties. After subtracting the polynomial fit baselines, raw thermogram curve data were fitted with the TwoStateScaled model using NanoAnalyze TA Instruments software, version 3.12, to determine the protein thermal transition temperatures in each sample. During nanoDSC scans, Δ H and Δ S were obtained and utilized to determine Δ G ( Δ G = Δ H − T Δ S).

FITC-Lys (lysozyme) = molecular target: T2, FITC-Lys (lysozyme) (Gallus gallus, UniProt P00698); test: Microscale thermophoresis (MST) binding of ABS phase-forming components to FITC-labeled lysozyme; conditions: FITC-Lys 0.41 μM, 25 °C; max. conc. (first capillary) in monomer range: below 1st CAC for FILs, ]0, 100] mM for non-aggregating ligands
T2 construct: Lyophilized lysozyme from chicken egg white, ≥90% purity; purchased Millipore (Darmstadt, Germany); host or cells: chicken egg white (natural source)
T2 sequence (P00698 19-147): as above
Procedure: Usually, in the labeling process, the position of dye is statistically distributed, and one amine per protein is labeled. […] The four ABS phase-forming components, [ N1112(OH) ][H2PO4] […] (FILs), and [C4C1Im][CF3SO3] […] In each run of MST, a maximum concentration of ligand was selected and consecutively diluted in sixteen capillaries.
Binding studies were conducted through microscale thermophoresis measurements of dye-labeled lysozyme. […] MST tests were conducted in a monolith NT.115 (blue/red) in accordance with the Nano Temper Technologies methodology. Medium MST power and 20% LED power (nano-blue) were set as the instrument’s default settings. For each and every MST measurement, PBS buffer was used. […] For each ligand, a series of 16 1:1 dilutions was prepared using the same buffer, varying the starting ligand concentration from 15 to 400 mM. MST traces were recorded using the standard parameters: 5 s MST power off, 30 s MST power on, and 5 s MST power off. Three independently conducted pipetted experiments’ data were examined using NanoTemper Technologies’ MO. Affinity Analysis program, version 2.3.

lysozyme (Lys) [2] = molecular target: T1, lysozyme (Lys); test: Turbidimetry (transmittance) of lysozyme solutions; conditions: 0.2 mg/mL Lys, IL 0.1–120 mM, 25 °C
Description: Monitoring the changes in turbidity offers an insight into the protein–ionic liquid aqueous solution interactions, which allows for the assessment of the ionic liquid functionalization of the fluorinated IL vs. the mere fluoro-contaning IL ([C2C1Im][C4F9SO3] vs. [C4C1Im][CF3SO3]). […] In opposition, [C2C1Im][C4F9SO3] […] The results of Rather et al. also confirmed the significant composition and concentration dependence of the lysozyme–surfactant IL interactions, mainly in the CAC concentration regime. Additionally, an increase in turbidity is observed for both [C4C1Im][CF3SO3] and [C2C1Im][C4F9SO3] at concentrations below the first CAC of the FIL (only monomers exist in solution for both ionic liquids) in comparison with lysozyme in water (snapshots in Figure 7A,B). […]
Both turbidimetry and UV-Vis absorbance assays were carried out at 25 °C on a double-beam UV6300PL UV-Vis spectrophotometer (VWR, Leuven, Belgium) with a pair of 10 mm path length quartz cuvettes of 400 µL sample volume. […] For absorbance measurements, all spectra were acquired with 190 to 400 nm wavelength range. […] Aqueous solutions of [C4C1Im][CF3SO3] and [C2C1Im][C4F9SO3] were analyzed with concentrations varying from 0.1 to 120 mM.

lysozyme (Lys) [3] = molecular target: T1, lysozyme (Lys); test: Intrinsic (tryptophan) fluorescence of lysozyme; conditions: 0.2 mg/mL Lys, excitation 295 nm, component 0.1–800 mM, 25 °C
Description: (FIL), [C4C1Im][CF3SO3] (mere fluoro-containing IL), and [ N1112(OH) ][H2PO4] (globular protein stabilizer). […] Even though large changes in protein conformation can modify the intensity of tyrosine and phenylalanine fluorescence signals, their low extinction coefficients and quantum yields, as well as their relative lower sensitivity to environmental changes, make them a less appealing candidate. Tryptophan is frequently found concealed in the hydrophobic core of proteins due to its aromatic nature. […] The tryptophan release energy is particularly sensitive to the polarity (and dynamics) of the environment because the excited-state dipole moment is quite large. Reactions to denaturation, substrate binding, subunit association, and conformational transitions create variations in the tryptophan emission spectra. The spectrum shift generally known as blue shift, a shift of the maximum emission towards smaller wavelengths, denotes that the aromatic residue is buried in the native structure of the protein [67]. […] Furthermore, the amount of exposure of the fluorophores to the solvent is associated with the increase or decrease in the intensity of the emission spectrum. […] [C4C1Im][CF3SO3] and [ N1112(OH) ][H2PO4] […] Variations in lysozyme spectra are caused by ligand-induced changes in the microenvironment of tryptophan residues, either by shifting the maximum peak wavelength (blue or red shift) or by altering peak intensities. These changes can be used as a measure of the effect of the ABS phase-forming components on protein folding and unfolding.
Intrinsic fluorescence spectroscopy measurements of lysozyme’s tryptophan residues were carried out on a Spex Horiba Jobyin Yvon spectrofluorometer (HORIBA Jobin Yvon, France) using a 10 mm path length quartz cuvette. […] The excitation and emission slit widths of 2 nm were used for all the measurements. Maximum fluorescence values were attained as the average of three measurements.

Lys Tm (lysozyme (Lys) [1]; 0.1 mM component in water): 74.50 °C
Lys ∆H (lysozyme (Lys) [1]; 0.1 mM component in water): 105.5 kcal/mol
Lys Tm (lysozyme (Lys) [1]; 1 mM component in water): 75.54 °C
Lys ∆H (lysozyme (Lys) [1]; 1 mM component in water): 104.7 kcal/mol
Lys Tm (lysozyme (Lys) [1]; 5 mM component in water): 74.64 °C
Lys ∆H (lysozyme (Lys) [1]; 5 mM component in water): 96.7 kcal/mol
Lys Tm (lysozyme (Lys) [1]; 10 mM component in water): 74.16 °C
Lys ∆H (lysozyme (Lys) [1]; 10 mM component in water): 94.55 kcal/mol
Kd (FITC-Lys (lysozyme)): no binding detected
Turbidity (transmittance) of Lys solution with increasing IL concentration (lysozyme (Lys) [2]): steady turbidity profile
Lys maximum emission wavelength with increasing component concentration (lysozyme (Lys) [3]): red shift from 334 nm to 368 nm
Compound: CCCCn1cc[n+](C)c1.O=S(=O)([O-])C(F)(F)F [[C4C1Im][CF3SO3]]
Lys fluorescence emission intensity with increasing component concentration (lysozyme (Lys) [3]): increase in Lys fluorescence emission intensity
